Test results published in patent publication US9243254B2, “Method for transforming a bacterium belonging to the streptococcus genus by natural competence” (priority 2009, dated 2016).

What was measured:
S. thermophilus DGCC7796 = assay: Natural transformation in CDM upon addition of synthetic peptide; type: cell-based, Streptococcus thermophilus; settings: 1 μM LPYFAGCL, 1 μg/mL pUC18_stu0855::P32cat
Method: (§1) Similarly to the protocol used in example 4, various S. thermophilus strains, including LMD-9, CNRZ1066 and LMG18311 used as controls, were pre-cultivated in M17-lactose medium. The cells of the precultures were harvested (5000 g, 9 minutes, 20° C.) and washed twice in CDM and then resuspended in CDM. The washed cells were diluted in fresh CDM medium to obtain an optical density of 0.05, and then incubated at 37° C. After 1.5 h of incubation, in one set of experiment, 1 μM of one of the tested synthetic peptides (LPYFAGCL) (SEQ ID NO: 85) and 1 μg/mL of pGIUD0855cat DNA were added to the culture, whereas 1 μg/mL of DNA but no synthetic peptide was added to the second set of experiment. Plasmid pGIUD0855cat is a pUC18-derivative containing a chloramphenicol resistance cassette flanked by 1-kb fragments corresponding to the upstream and downstream regions of stu0855. Upon transformation, it promotes the genetic replacement of stu0855 by P32-cat through homologous recombination (FIG. 7). The cultures were grown during 6 hours and serial dilutions were plated on the surface of M17-lactose agar medium containing 5 μg/mL of chloramphenicol to measure transformation efficiency. Transformed S. thermophilus cells were selected at 37° C.; when transformants were obtained, the transformation efficiency was calculated and is given in Table 9.

S. thermophilus DGCC7854 = assay: as above; type: cell-based, Streptococcus thermophilus; settings: 1 μM LPYFAGCL, 1 μg/mL pUC18_stu0855::P32cat
Method: as §1

S. thermophilus DGCC7790 = assay: as above; type: cell-based, Streptococcus thermophilus; settings: 1 μM LPYFAGCL, 1 μg/mL pUC18_stu0855::P32cat
Method: as §1

S. thermophilus DGCC7710 = assay: as above; type: cell-based, Streptococcus thermophilus; settings: 1 μM LPYFAGCL, 1 μg/mL pUC18_stu0855::P32cat
Method: as §1

S. thermophilus DGCC7809 = assay: as above; type: cell-based, Streptococcus thermophilus; settings: 1 μM LPYFAGCL, 1 μg/mL pUC18_stu0855::P32cat
Method: as §1

S. thermophilus DGCC7694 = assay: as above; type: cell-based, Streptococcus thermophilus; settings: 1 μM LPYFAGCL, 1 μg/mL pUC18_stu0855::P32cat
Method: as §1

S. thermophilus DGCC7879 = assay: as above; type: cell-based, Streptococcus thermophilus; settings: 1 μM LPYFAGCL, 1 μg/mL pUC18_stu0855::P32cat
Method: as §1

S. thermophilus DGCC7785 = assay: as above; type: cell-based, Streptococcus thermophilus; settings: 1 μM LPYFAGCL, 1 μg/mL pUC18_stu0855::P32cat
Method: as §1

S. thermophilus DGCC782 = assay: as above; type: cell-based, Streptococcus thermophilus; settings: 1 μM LPYFAGCL, 1 μg/mL pUC18_stu0855::P32cat
Method: as §1

S. thermophilus DGCC3367 = assay: as above; type: cell-based, Streptococcus thermophilus; settings: 1 μM LPYFAGCL, 1 μg/mL pUC18_stu0855::P32cat
Method: as §1

S. thermophilus DGCC715 = assay: as above; type: cell-based, Streptococcus thermophilus; settings: 1 μM LPYFAGCL, 1 μg/mL pUC18_stu0855::P32cat
Method: as §1

S. thermophilus DGCC7773 = assay: as above; type: cell-based, Streptococcus thermophilus; settings: 1 μM LPYFAGCL, 1 μg/mL pUC18_stu0855::P32cat
Method: as §1

S. thermophilus DGCC7891 = assay: as above; type: cell-based, Streptococcus thermophilus; settings: 1 μM LPYFAGCL, 1 μg/mL pUC18_stu0855::P32cat
Method: as §1

S. thermophilus DGCC7853 = assay: as above; type: cell-based, Streptococcus thermophilus; settings: 1 μM LPYFAGCL, 1 μg/mL pUC18_stu0855::P32cat
Method: as §1

S. thermophilus DGCC7666 = assay: as above; type: cell-based, Streptococcus thermophilus; settings: 1 μM LPYFAGCL, 1 μg/mL pUC18_stu0855::P32cat
Method: as §1

[1] = test system: various S. thermophilus strains; assay: Competence induction over the panel of S. thermophilus strains (summary of Table 9); type: cell-based, Streptococcus thermophilus
Method: as §1

S. salivarius JIM8777 = assay: Natural transformation in CDM upon addition of synthetic peptide; type: cell-based, Streptococcus salivarius
Method: Similarly to the protocol used in example 4, strains LMD-9, LMG18311, CNRZ1066 and JIM8777 were pre-cultivated in M17-lactose medium. The cells of the precultures were harvested (5000 g, 9 minutes, 20° C.) and washed twice in CDM and then resuspended in CDM. The washed cells were diluted in fresh CDM medium to obtain an optical density of 0.05, and then incubated at 37° C. After 1.5 h of incubation, in one set of experiment, 1 μM of one of the tested synthetic peptides and 1 μg/mL of pGIUD0855ery DNA (in case of S. thermophilus strains), or 1 μg/ml of pG+host09 DNA (in case of S. salivarius strains) were added to the culture, whereas 1 μg/mL of DNA but no synthetic peptide was added to the second set of experiment. The cultures were grown during 6 hours and serial dilutions were plated on the surface of M17-lactose agar medium containing 2.5 μg/mL of erythromycin to measure transformation efficiency. Transformed S. thermophilus and S. salivarius cells are selected at 37° C. and 29° C., respectively.
Day 2: • Centrifuge Day 1—culture (centrifugation parameters: 5000 g, 9 minutes, 15° C.) and perform two washing steps with one volume (10 mL) of CDM (centrifugation parameters: 5000 g, 9 minutes, 15° C.). • Dilute the culture in 10 mL CDM to obtain an OD600nm of 0.05. • A small volume of S. thermophilus cultures (300 μL) is then transferred in white microplate with a transparent bottom (655095; Greiner, Alphen aid Rijn, The Netherlands) and is grown at 37° C. Luminescence at 595 nm and optical density at 600 nm are recorded with the automatic Synergy HT multi-mode microplate reader. The luciferase activity catalysed by LuxAB requires the presence of nonanal as substrate. In this experimental set-up, nonanal (Acros Organics ref. 204-688-5) is supplied to the cultures by placing 50 μL of a solution containing 1% nonanal diluted in mineral oil in the spaces between the wells of a covered microplate (11). The nonanal present in the solution will become volatile and there will be an equilibrium between the concentration of nonanal present in the air and in the culture samples. The luminescence and absorbance are scanned every 10 minutes during 6 hours. • To perform a competence experiment, 1 μg of donor DNA is added in the 300 μL samples in the beginning of incubation. […] In case of the sample that received DNA, make different 10-fold dilutions of the sample and plate 100 μL on the same solid selective medium. Check the viability of the cells in the samples by plating 10 μL of serial 10-fold dilutions of the cultures on M17, lactose 1% medium. Transformants are picked following 24 h of incubation at 37° C. in anaerobic conditions (gaspak BBL). […]

Substance | Transformation rate, With peptide addition (S. thermophilus DGCC7796) | Transformation rate, With peptide addition (S. thermophilus DGCC7854) | Transformation rate, With peptide addition (S. thermophilus DGCC7790) | Transformation rate, With peptide addition (S. thermophilus DGCC7710) | Transformation rate, With peptide addition (S. thermophilus DGCC7809) | Transformation rate, With peptide addition (S. thermophilus DGCC7694) | Transformation rate, With peptide addition (S. thermophilus DGCC7879) | Transformation rate, With peptide addition (S. thermophilus DGCC7785) | Transformation rate, With peptide addition (S. thermophilus DGCC782) | Transformation rate, With peptide addition (S. thermophilus DGCC3367) | Transformation rate, With peptide addition (S. thermophilus DGCC715) | Transformation rate, With peptide addition (S. thermophilus DGCC7773) | Transformation rate, With peptide addition (S. thermophilus DGCC7891) | Transformation rate, With peptide addition (S. thermophilus DGCC7853) | Transformation rate, With peptide addition (S. thermophilus DGCC7666) | Improvement of the efficiency of transformation by the addition of the peptide ([1]; 1 μM LPYFAGCL versus no peptide) | Number of strains competent when CDM is supplemented with the peptide ([1]; 1 μM LPYFAGCL, 9 competent without peptide) | Number of strains whose efficiency of transformation was greatly improved by the addition of the peptide ([1]; out of the 19 competent strains) | Transformation rate, With peptide addition (S. salivarius JIM8777; 1 μM PYFAGCL, 1 μg/mL pG+host9) | Complementation of the transformation defect in CDM (S. salivarius JIM8777; 1 μM peptide, result in words)
LPYFAGCL (fragment) [synthetic peptide corresponding to a C-terminal fragment of Shp316] | 6.9 × 10^−2 | 5.3 × 10^−3 | 4.3 × 10^−2 | 1 × 10^−2 | 5.8 × 10^−4 | 3.9 × 10^−2 | 8.6 × 10^−3 | 4.1 × 10^−5 | 2 × 10^−3 | 1.8 × 10^−3 | 1.2 × 10^−2 | 1.5 × 10^−1 | 1.4 × 10^−4 | 4.9 × 10^−4 | 4.2 × 10^−2 | up to 6 Log | 19 strains | 17 strains | – | –
PYFAGCL (fragment) | – | – | – | – | – | – | – | – | – | – | – | – | – | – | – | – | – | – | 3.07 × 10^−6 | complements the transformation defect
